The values below come from US11696907B2, “Wound healing composition” (WINERGEN TECHNOLOGIES INC., LTD., priority 2016, dated 2023).

One data set concerns wounds and skin damage. As to the kind of experiment: Treatment effect of palmitic acid and behenic acid alone versus combined.
The next data set has as its system certain wounds. Briefly: Effect of unsaturated fatty acids on wounds. Also on record: species or system patients. The following applies: in vivo.

Each structure is given as a SMILES string.

In the case of `CCCCCCCCCCCCCCCC(=O)O` [palmitic acid], in the data set with wounds and skin damage, the “treatment effect of either acid alone” value is listed as “less significant”.

For the molecule `CCCCCCCCCCCCCCCCCCCCCC(=O)O` [behenic acid], the “treatment effect of either acid alone” value in the data set with wounds and skin damage is listed as “less significant”.

On to `CCCCC/C=C\C/C=C\CCCCCCCC(=O)O` [linoleic acid], for which, in the data set with certain wounds, the “inflammation to certain wounds, causing pain in some patients” value was “harmful inflammation”.

Regarding `CCCCC/C=C\C/C=C\C/C=C\C/C=C\CCCC(=O)O` [arachidonic acid], the “inflammation to certain wounds, causing pain in some patients” value in the data set on certain wounds was “harmful inflammation”.
